Tests used:
hearts of WT mice = test: Langendorff perfused heart, ischemia and reperfusion (I/R) with OLDA, wild type; design: species or system mouse; details: OLDA 1.5×10^−7M; WT
Procedure: (§1) The following measurements were made on the two types of heart tissue: left ventricular end-diastolic pressure (LVEDP), left ventricular developed pressure (LVDP), coronary flow (CF), and left ventricular (LV) peak positive rate of pressure change/rate of time change (+dP/dt) were evaluated after I/R.

hearts of TRPV1−/− mice = test: Langendorff perfused heart, ischemia and reperfusion (I/R) with OLDA, TRPV1-null; design: species or system mouse
Procedure: as §1

WT and TRPV1−/− hearts = test: OLDA-induced CGRP and SP release from hearts (radioimmunoassay); design: species or system mouse
[1] = biological target: transient receptor potential vanilloid type 1 (TRPV1) channel (Homo sapiens, UniProt Q8NER1); details: in vitro; cited from earlier work
[2] = tested on: Wistar rats fed a NS or HS diet for 10 days; test: MAP responses to i.v. capsaicin with or without CAPZ in urethane-anesthetized rats; assay type: in vivo, rat; details: for decrease in MAP: in mmHg
Procedure: Surgical Preparation Rats were anesthetized with ketamine and xylazine (80 and 4 mg/kg intraperitoneally, respectively) for cannulation or with urethane (1.5 g/kg intraperitoneally) for capsaicin administration. The left jugular vein, carotid and femoral artery were cannulated under anesthesia for injection of drugs or monitoring of mean arterial pressure (MAP) and heart rate (HR).
Each dose of injection was separated by a 30-minute interval. To determine the specificity of capsaicin, CAPZ (3 mg/kg) was administered 10 minutes before capsaicin injection in a separate group.

renal tissues = test: Capsaicin-induced CGRP release from renal tissues; design: species or system rat; details: Cap-HS and Cap-NS vs Con-NS and Con-HS
Text: N¼5,_P<0.05 versus vehicle, capsazepine plus capsaicin and capsazepine; †P<0.001 versus capsaicin of control rats with a normal sodium diet (Con-NS) and capsaicin of control rats with a high sodium diet (Con-HS). Vehicle; capsaicin; capsazepine and capsaicin; capsazepine.
To examine renal sensory nerve function, renal CGRP release after stimulation of the renal sensory nerves with capsaicin was examined.

Wistar rats = test: Neonatal capsaicin treatment plus NS or HS diet: blood pressure, 8-isoprostane, creatinine clearance; assay type: in vivo, rat
Procedure: (§2) Enhanced oxidative stress in kidneys of salt-sensitive hypertension: role of sensory nerves (Am J Physiol Heart Circ Physiol 291: H3136-H3143, 2006). To determine the mechanism(s) underlying enhanced oxidative stress in kidneys of salt-sensitive hypertension, neonatal Wistar rats were given vehicle or capsaicin (CAP, 50 mg/kg sc) on the first and second days of life. After being weaned, male rats were assigned into four groups and treated for 2 wk with the following: vehicle+a normal sodium diet (NS, 0.4%, CON-NS), vehicle+a high-sodium diet (HS, 4%, CON-HS), CAP+NS (CAP−NS), and CAP+HS (CAP−HS). […] Plasma and urinary 8-iso-prostaglandin F2alpha levels increased by approximately 40% in CON-HS and CAP−HS rats compared with their respective controls fed a NS diet (P≦0.05), and these parameters were higher in CAP−HS compared with CON-HS rats. Superoxide (O2—) levels in the renal cortex and medulla increased by approximately 45% in CAP−HS compared with CON-HS, CON-NS, and CAP−NS rats (P≦0.05).

renal cortex and medulla = test: Neonatal capsaicin treatment plus NS or HS diet: renal superoxide, SOD and NAD(P)H oxidase subunits; design: species or system rat; details: for renal cortical Cu/Zn SOD activity / renal cortical Cu/Zn SOD protein expression / renal cortical Mn SOD activity / renal cortical Mn SOD protein expression / renal cortical O2— production / renal cortical gp91 phox protein expression / renal cortical p47phox protein expression / renal medullary Cu/Zn SOD activity / renal medullary Cu/Zn SOD protein expression / renal medullary Mn SOD activity / renal medullary Mn SOD protein expression / renal medullary O2— production / renal medullary p47phox protein expression: neonatal CAP
Procedure: as §2, with “(P≦0.05). […]” for “(P≦0.05).”

[3] = tested on: rats fed either a high or normal sodium diet; details: rat, in vivo; cited from earlier work
rats = details: dose-dependent; abolished by TRPV1 blockade or ipsilateral renal denervation; cited from earlier work
[4] = CAP−HS compared with CON-HS, CON-NS, CAP−NS

Chain of transient receptor potential vanilloid type 1 (TRPV1) channel (Q8NER1 whole entry, species assumed): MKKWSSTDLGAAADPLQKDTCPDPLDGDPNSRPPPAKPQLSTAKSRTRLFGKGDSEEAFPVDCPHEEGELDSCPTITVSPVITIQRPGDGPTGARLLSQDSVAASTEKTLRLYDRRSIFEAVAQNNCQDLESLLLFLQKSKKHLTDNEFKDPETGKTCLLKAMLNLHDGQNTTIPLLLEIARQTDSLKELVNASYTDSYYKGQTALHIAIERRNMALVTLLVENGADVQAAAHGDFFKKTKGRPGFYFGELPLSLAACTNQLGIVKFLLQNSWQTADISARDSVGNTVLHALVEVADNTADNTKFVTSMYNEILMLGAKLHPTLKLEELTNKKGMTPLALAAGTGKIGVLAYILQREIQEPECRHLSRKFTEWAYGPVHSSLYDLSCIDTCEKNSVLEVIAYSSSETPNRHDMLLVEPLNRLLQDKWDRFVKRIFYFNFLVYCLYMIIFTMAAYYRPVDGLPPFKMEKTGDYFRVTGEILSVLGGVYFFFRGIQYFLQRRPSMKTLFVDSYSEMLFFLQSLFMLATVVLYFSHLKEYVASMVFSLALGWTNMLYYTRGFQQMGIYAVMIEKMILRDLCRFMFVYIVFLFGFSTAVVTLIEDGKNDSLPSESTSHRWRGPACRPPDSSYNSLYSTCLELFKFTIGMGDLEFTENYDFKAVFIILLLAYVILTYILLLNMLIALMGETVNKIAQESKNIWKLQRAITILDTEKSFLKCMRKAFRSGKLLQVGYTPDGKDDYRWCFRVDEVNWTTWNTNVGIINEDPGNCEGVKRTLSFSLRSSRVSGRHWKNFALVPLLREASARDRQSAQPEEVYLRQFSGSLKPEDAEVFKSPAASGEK

With CCCCCCCC/C=C\CCCCCCCC(=O)NCCc1ccc(O)c(O)c1 [OLDA, N-oleoyl-dopamine] as the compound, how does the “LV peak positive dP/dt (+dP/dt) after I/R” value (hearts of WT mice) read?
Its value is 3227±126 mmHg/s.

And the “coronary flow (CF) after I/R” value (hearts of WT mice)?
Its value is 76±6%.

What about the “left ventricular developed pressure (LVDP) after I/R” value (hearts of WT mice) of the same compound?
The value was 61.3±3.8 mmHg.

What about the “left ventricular end-diastolic pressure (LVEDP) after I/R” value (hearts of WT mice) of the same compound?
Its value is 10.1±0.6 mmHg.

What about the “protective effect in TRPV1−/− hearts” value (hearts of TRPV1−/− mice) of the same compound?
Its value is “void”.

And the “LV peak positive dP/dt (+dP/dt) after I/R” value (hearts of TRPV1−/− mice; OLDA 1.5×10^−7M, TRPV1−/−)?
The value was 1967±299 mmHg/s.

And the “coronary flow (CF) after I/R” value (hearts of TRPV1−/− mice; OLDA 1.5×10^−7M, TRPV1−/−)?
Its value is 53±2%.

What about the “left ventricular developed pressure (LVDP) after I/R” value (hearts of TRPV1−/− mice; OLDA 1.5×10^−7M, TRPV1−/−) of the same compound?
The value was 39.8±3.7 mmHg.

What about the “left ventricular end-diastolic pressure (LVEDP) after I/R” value (hearts of TRPV1−/− mice; OLDA 1.5×10^−7M, TRPV1−/−) of the same compound?
The value was 29.9±3.5 mmHg.

What about the “CGRP and SP release in WT compared to TRPV1−/− hearts” value (WT and TRPV1−/− hearts) of the same compound?
Its value is “significantly higher”.

What about the “potency relative to capsaicin” value [1] of the same compound?
The value was “at least 30 times”.

Which “decrease in MAP” value ([2]; CAP 10 μg/kg iv, HS) does the source give for COc1cc(CNC(=O)CCCC/C=C/C(C)C)ccc1O [capsaicin, (E)-N-(4-hydroxy-3-methoxybenzyl)-8-methylnon-6-enamide] here?
Its value is 11±2.

And the “decrease in MAP” value ([2]; CAP 10 μg/kg iv, NS)?
The value was 6±1.

What about the “decrease in MAP” value ([2]; CAP 30 μg/kg iv, HS) of the same compound?
Its value is 21±3.

What about the “decrease in MAP” value ([2]; CAP 30 μg/kg iv, NS) of the same compound?
The value was 12 ±2.

What about the “decrease in MAP (depressor effect)” value ([2]; capsaicin 10 μg/kg iv, HS) of the same compound?
The value was 11±2 mmHg.

What about the “decrease in MAP (depressor effect)” value ([2]; capsaicin 10 μg/kg iv, NS) of the same compound?
Its value is 6±1 mmHg.

And the “decrease in MAP (depressor effect)” value ([2]; capsaicin 30 μg/kg iv, HS)?
Its value is 21±3 mmHg.

And the “decrease in MAP (depressor effect)” value ([2]; capsaicin 30 μg/kg iv, NS)?
The value was 12±2 mmHg.

What about the “renal CGRP release in response to 1 mmol/l capsaicin in capsaicin-pretreated vs control rats” value (renal tissues) of the same compound?
The value was “significantly lower”.

And the “decrease in creatinine clearance” value (Wistar rats; [4])?
Its value is 45%.

What about the “increase in plasma and urinary 8-iso-prostaglandin F2alpha levels” value (Wistar rats; CAP−HS compared with control fed a NS diet) of the same compound?
The value was “approximately 40%”.

And the “plasma and urine 8-isoprostane levels” value (Wistar rats; neonatal CAP, NS diet)?
The value was “did not increase”.

What about the “increase in superoxide levels in renal cortex and medulla” value (renal cortex and medulla; [4]) of the same compound?
The value was “approximately 45%”.

And the “renal cortical Cu/Zn SOD activity” value (renal cortex and medulla; HS)?
The value was 74.6 9.6 mU/mg protein.

What about the “renal cortical Cu/Zn SOD protein expression” value (renal cortex and medulla; HS) of the same compound?
Its value is 0.39 0.05 %-actin arbitrary units.

What about the “renal cortical Mn SOD activity” value (renal cortex and medulla; HS) of the same compound?
Its value is 14.3 3.5 mU/mg protein.

What about the “renal cortical Mn SOD protein expression” value (renal cortex and medulla; HS) of the same compound?
The value was 0.10 0.01 %-actin arbitrary units.

And the “renal cortical O2— production” value (renal cortex and medulla; HS)?
Its value is 3.53 0.46 nmol_min—1_mg dry wt—1.

What about the “renal cortical gp91 phox protein expression” value (renal cortex and medulla; HS) of the same compound?
Its value is 0.21 0.03 arbitrary units.

And the “renal cortical p47phox protein expression” value (renal cortex and medulla; HS)?
The value was 0.07 0.01 arbitrary units.

And the “renal medullary Cu/Zn SOD activity” value (renal cortex and medulla; HS)?
The value was 101.7 11.6 mU/mg protein.

What about the “renal medullary Cu/Zn SOD protein expression” value (renal cortex and medulla; HS) of the same compound?
The value was 0.41 0.05 %-actin arbitrary units.

What about the “renal medullary Mn SOD activity” value (renal cortex and medulla; HS) of the same compound?
Its value is 27.1 4.2 mU/mg protein.

And the “renal medullary Mn SOD protein expression” value (renal cortex and medulla; HS)?
The value was 0.13 0.02 %-actin arbitrary units.

What about the “renal medullary O2— production” value (renal cortex and medulla; HS) of the same compound?
Its value is 2.32 0.29 nmol_min—1_mg dry wt—1.

What about the “renal medullary p47phox protein expression” value (renal cortex and medulla; HS) of the same compound?
Its value is 0.1 0.01 arbitrary units.

And the “renal cortical Cu/Zn SOD activity” value (renal cortex and medulla; NS)?
The value was 54.8 7.6 mU/mg protein.

And the “renal cortical Cu/Zn SOD protein expression” value (renal cortex and medulla; NS)?
The value was 0.29 0.05 %-actin arbitrary units.

What about the “renal cortical Mn SOD activity” value (renal cortex and medulla; NS) of the same compound?
Its value is 10.4 2.5 mU/mg protein.

What about the “renal cortical Mn SOD protein expression” value (renal cortex and medulla; NS) of the same compound?
Its value is 0.07 0.01 %-actin arbitrary units.

And the “renal cortical O2— production” value (renal cortex and medulla; NS)?
Its value is 2.35 0.55 nmol_min—1_mg dry wt—1.

And the “renal cortical gp91 phox protein expression” value (renal cortex and medulla; NS)?
Its value is 0.17 0.03 arbitrary units.

And the “renal cortical p47phox protein expression” value (renal cortex and medulla; NS)?
The value was 0.05 0.01 arbitrary units.

What about the “renal medullary Cu/Zn SOD activity” value (renal cortex and medulla; NS) of the same compound?
The value was 67.0 7.6 mU/mg protein.

And the “renal medullary Cu/Zn SOD protein expression” value (renal cortex and medulla; NS)?
The value was 0.27 0.05 %-actin arbitrary units.

What about the “renal medullary Mn SOD activity” value (renal cortex and medulla; NS) of the same compound?
Its value is 18.7 3.8 mU/mg protein.

What about the “renal medullary Mn SOD protein expression” value (renal cortex and medulla; NS) of the same compound?
The value was 0.09 0.02 %-actin arbitrary units.

And the “renal medullary O2— production” value (renal cortex and medulla; NS)?
Its value is 1.43 0.40 nmol_min—1_mg dry wt—1.

And the “renal medullary p47phox protein expression” value (renal cortex and medulla; NS)?
The value was 0.07 0.01 arbitrary units.

What about the “MAP” value [3] of the same compound?
Its value is “decrease in MAP”.

What about the “plasma CGRP levels” value [3] of the same compound?
The value was “increase in plasma CGRP levels”.

What about the “Uflow and UNa” value (rats) of the same compound?
The value was “Increases”.

Source: patent US20080051454A1, “Compositions and methods for transient receptor potential vanilloid (TRPV) channel mediated treatments” (The Board of Trustees Operating Michigan State University, priority 2006, published 2008)
